Laboratory results as given in patent US10245261B2, “Substituted indol-5-ol derivatives and their therapeutic applications” (NantBioScience, Inc., priority 2013, dated 2019).

Tests used:
Experiment in all cases: KinaseProfiler kinase assay
Format in all cases: biochemical
PKCζ(h) = PKCζ(h) (Homo sapiens, UniProt Q05513)
Method in brief: (§1)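 Each enzyme was assayed radiometrically: 40 min room-temperature reaction with [γ-33P]ATP and 10 mM Mg acetate, acid-stopped, filtered, scintillation-counted.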

CHK2(h) = CHK2(h) (Homo sapiens, UniProt O96017)
Method in brief: as §1

Rsk1(h) = Rsk1(h) (Homo sapiens, UniProt Q15418)
Method in brief: as §1

Arg(h) = Arg(h) (Homo sapiens, UniProt P42684)
Method in brief: as §1

CaMKI(h) = CaMKI(h) (Homo sapiens, UniProt Q14012)
Method in brief: as §1

Blk(m) = Blk(m) (Mus musculus, UniProt P16277)
Method in brief: as §1

Lyn(h) = Lyn(h) (Homo sapiens, UniProt P07948)
Method in brief: as §1

Ron(h) = Ron(h) (Homo sapiens, UniProt Q04912)
Method in brief: as §1

PKCγ(h) = PKCγ(h) (Homo sapiens, UniProt P05129)
Method in brief: as §1

PKCε(h) = PKCε(h) (Homo sapiens, UniProt Q02156)
Method in brief: as §1

Mer(h) = Mer(h) (Homo sapiens, UniProt Q12866)
Method in brief: as §1

Mnk2(h) = Mnk2(h) (Homo sapiens, UniProt Q9HBH9)
Method in brief: as §1

Hck(h) = Hck(h) (Homo sapiens, UniProt P08631)
Method in brief: as §1

EphB1(h) = EphB1(h) (Homo sapiens, UniProt P54762)
Method in brief: as §1

EphA5(h) = EphA5(h) (Homo sapiens, UniProt P54756)
Method in brief: as §1

[1] = target: PI3 Kinase (p110α(E542K)/p85α)(m) (Mus musculus, UniProt P42337, E542K)
Method in brief: as §1

EphB2(h) = EphB2(h) (Homo sapiens, UniProt P29323)
Method in brief: as §1

EphA8(h) = EphA8(h) (Homo sapiens, UniProt P29322)
Method in brief: as §1

TSSK2(h) = TSSK2(h) (Homo sapiens, UniProt Q96PF2)
Method in brief: as §1

SAPK2a(h) = SAPK2a(h) (Homo sapiens, UniProt Q16539)
Method in brief: as §1

JAK2(h) = JAK2(h) (Homo sapiens, UniProt O60674)
Method in brief: as §1

[2] = target: PI3 Kinase (p110α(E542K)/p85α)(h) (Homo sapiens, UniProt P42336, E542K)
Method in brief: as §1

TBK1(h) = TBK1(h) (Homo sapiens, UniProt Q9UHD2)
Method in brief: as §1

DAPK2(h) = DAPK2(h) (Homo sapiens, UniProt Q9UIK4)
Method in brief: as §1

RIPK2(h) = RIPK2(h) (Homo sapiens, UniProt O43353)
Method in brief: as §1

EphA7(h) = EphA7(h) (Homo sapiens, UniProt Q15375)
Method in brief: as §1

PDGFRα(h) = PDGFRα(h) (Homo sapiens, UniProt P16234)
Method in brief: as §1

cKit(D816H)(h) = cKit(D816H)(h) (Homo sapiens, UniProt P10721, D816H)
Method in brief: as §1

LIMK1(h) = LIMK1(h) (Homo sapiens, UniProt P53667)
Method in brief: as §1

Flt3(D835Y)(h) = Flt3(D835Y)(h) (Homo sapiens, UniProt P36888, D835Y)
Method in brief: as §1

mTOR/FKBP12(h) = mTOR/FKBP12(h) (Homo sapiens, UniProt P42345)
Method in brief: as §1

PKCζ(h), sequence (Q05513 whole entry): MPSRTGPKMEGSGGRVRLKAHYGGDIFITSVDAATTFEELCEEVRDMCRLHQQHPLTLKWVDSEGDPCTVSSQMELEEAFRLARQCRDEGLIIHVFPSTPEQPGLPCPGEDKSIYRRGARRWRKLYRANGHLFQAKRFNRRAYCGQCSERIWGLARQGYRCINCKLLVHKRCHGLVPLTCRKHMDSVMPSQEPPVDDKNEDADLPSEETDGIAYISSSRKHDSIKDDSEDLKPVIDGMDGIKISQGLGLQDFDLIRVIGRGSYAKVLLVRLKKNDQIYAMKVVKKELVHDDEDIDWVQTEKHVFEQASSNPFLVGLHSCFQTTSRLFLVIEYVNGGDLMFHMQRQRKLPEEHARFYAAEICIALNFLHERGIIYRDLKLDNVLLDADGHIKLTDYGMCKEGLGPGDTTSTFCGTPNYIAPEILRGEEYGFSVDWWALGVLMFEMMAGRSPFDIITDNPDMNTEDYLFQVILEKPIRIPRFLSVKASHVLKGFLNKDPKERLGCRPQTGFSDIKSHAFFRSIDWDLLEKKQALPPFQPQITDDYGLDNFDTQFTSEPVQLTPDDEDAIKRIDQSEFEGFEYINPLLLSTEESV
EphA7(h), sequence (Q15375 28-998): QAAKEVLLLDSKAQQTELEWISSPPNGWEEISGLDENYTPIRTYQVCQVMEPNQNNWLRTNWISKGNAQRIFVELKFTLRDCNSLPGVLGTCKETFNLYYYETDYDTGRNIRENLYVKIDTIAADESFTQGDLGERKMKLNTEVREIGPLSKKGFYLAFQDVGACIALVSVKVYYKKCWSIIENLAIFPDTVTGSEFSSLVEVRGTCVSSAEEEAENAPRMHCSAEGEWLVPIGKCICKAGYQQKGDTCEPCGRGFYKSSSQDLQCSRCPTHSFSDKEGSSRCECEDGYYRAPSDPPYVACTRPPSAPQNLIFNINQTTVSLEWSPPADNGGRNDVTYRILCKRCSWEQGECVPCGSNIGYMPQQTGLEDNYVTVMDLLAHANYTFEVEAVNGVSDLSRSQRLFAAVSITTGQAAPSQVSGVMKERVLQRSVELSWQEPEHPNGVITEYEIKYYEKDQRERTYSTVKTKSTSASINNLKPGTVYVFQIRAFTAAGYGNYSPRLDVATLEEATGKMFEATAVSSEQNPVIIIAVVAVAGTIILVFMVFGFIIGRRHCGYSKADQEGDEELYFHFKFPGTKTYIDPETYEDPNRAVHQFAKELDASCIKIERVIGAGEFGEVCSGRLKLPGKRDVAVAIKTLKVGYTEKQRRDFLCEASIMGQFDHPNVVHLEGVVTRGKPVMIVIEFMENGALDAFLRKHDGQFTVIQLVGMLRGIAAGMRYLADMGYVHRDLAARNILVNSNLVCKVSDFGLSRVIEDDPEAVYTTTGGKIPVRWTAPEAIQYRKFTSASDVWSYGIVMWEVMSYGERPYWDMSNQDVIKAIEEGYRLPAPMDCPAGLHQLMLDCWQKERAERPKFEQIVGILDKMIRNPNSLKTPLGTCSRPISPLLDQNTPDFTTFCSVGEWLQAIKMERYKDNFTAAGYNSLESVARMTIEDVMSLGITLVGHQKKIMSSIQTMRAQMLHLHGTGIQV
EphB2(h), sequence (P29323 19-1055): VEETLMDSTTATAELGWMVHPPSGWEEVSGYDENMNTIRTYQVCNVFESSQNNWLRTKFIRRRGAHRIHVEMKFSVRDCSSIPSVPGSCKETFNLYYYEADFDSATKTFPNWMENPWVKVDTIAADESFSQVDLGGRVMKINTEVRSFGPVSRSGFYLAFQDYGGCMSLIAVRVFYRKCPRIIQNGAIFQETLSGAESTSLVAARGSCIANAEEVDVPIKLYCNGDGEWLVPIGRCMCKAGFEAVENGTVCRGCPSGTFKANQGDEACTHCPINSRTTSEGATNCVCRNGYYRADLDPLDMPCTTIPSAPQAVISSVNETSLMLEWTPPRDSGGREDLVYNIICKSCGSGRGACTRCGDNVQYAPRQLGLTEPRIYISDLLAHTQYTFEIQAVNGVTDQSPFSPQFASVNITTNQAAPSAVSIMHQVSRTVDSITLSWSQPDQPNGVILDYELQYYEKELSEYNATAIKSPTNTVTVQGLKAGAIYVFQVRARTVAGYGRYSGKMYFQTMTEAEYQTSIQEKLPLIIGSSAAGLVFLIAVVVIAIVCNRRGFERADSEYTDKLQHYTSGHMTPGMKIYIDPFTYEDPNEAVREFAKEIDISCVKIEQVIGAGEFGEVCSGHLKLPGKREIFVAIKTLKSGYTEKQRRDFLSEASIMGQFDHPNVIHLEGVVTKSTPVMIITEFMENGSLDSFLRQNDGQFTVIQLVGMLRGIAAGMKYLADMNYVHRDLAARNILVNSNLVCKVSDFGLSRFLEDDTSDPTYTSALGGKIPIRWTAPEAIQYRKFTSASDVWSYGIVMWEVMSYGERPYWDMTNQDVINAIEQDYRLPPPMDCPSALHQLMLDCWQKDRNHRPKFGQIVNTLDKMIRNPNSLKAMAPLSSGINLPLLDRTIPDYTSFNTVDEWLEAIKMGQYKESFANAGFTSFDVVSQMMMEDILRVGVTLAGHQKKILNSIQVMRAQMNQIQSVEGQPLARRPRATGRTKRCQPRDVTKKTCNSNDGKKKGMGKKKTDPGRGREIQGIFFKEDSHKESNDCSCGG
Lyn(h), sequence (P07948 whole entry): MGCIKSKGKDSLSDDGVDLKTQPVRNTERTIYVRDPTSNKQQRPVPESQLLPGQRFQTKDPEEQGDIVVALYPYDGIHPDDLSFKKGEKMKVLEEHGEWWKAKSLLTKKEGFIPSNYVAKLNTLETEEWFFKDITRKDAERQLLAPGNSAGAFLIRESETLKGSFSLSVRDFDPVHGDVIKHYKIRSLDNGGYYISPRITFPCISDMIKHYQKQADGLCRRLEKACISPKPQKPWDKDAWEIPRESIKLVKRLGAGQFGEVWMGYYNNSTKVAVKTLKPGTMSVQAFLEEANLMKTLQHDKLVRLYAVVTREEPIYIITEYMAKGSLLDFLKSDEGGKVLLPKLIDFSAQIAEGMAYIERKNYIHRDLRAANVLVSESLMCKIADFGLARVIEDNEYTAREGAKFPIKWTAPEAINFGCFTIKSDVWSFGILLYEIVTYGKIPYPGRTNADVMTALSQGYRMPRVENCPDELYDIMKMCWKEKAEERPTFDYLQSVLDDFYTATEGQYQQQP
DAPK2(h), sequence (Q9UIK4 whole entry): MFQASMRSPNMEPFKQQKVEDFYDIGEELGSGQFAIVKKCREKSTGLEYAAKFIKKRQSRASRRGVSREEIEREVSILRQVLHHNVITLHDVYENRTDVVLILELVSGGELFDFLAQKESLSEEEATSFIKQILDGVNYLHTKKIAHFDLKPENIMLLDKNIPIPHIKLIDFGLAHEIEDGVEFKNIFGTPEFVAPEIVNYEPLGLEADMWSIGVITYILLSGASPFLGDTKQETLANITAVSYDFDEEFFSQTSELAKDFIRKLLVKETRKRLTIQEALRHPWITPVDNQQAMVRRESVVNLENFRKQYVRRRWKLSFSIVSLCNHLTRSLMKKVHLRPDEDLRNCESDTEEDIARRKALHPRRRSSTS
LIMK1(h), sequence (P53667 whole entry): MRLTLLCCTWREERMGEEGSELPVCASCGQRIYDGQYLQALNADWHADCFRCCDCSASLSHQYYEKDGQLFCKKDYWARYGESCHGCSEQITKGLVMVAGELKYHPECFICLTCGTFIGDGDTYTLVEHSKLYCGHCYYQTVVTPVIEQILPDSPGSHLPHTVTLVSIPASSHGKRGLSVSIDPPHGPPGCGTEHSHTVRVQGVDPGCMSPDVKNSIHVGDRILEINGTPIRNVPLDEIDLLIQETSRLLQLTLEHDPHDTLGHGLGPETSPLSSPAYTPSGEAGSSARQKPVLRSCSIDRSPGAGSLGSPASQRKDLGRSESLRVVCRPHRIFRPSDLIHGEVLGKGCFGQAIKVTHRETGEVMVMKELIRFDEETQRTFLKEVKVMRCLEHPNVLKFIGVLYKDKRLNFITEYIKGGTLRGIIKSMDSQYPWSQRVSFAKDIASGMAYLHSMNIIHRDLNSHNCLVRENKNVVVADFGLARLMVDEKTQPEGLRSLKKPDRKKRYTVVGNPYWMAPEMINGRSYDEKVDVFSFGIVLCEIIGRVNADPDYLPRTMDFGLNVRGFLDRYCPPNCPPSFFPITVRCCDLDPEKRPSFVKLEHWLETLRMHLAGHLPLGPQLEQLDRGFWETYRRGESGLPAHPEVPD
SAPK2a(h), sequence (Q16539 whole entry): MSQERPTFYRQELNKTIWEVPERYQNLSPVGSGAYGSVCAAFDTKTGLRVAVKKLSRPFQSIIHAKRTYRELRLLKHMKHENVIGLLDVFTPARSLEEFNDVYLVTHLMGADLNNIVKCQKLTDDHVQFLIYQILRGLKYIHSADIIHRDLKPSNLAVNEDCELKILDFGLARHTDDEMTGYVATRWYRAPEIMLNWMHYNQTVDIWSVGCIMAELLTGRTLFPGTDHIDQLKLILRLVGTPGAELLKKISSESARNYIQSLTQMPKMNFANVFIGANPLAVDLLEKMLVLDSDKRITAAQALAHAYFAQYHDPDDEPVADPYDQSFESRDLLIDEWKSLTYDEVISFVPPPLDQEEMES
Mnk2(h), sequence (Q9HBH9 whole entry): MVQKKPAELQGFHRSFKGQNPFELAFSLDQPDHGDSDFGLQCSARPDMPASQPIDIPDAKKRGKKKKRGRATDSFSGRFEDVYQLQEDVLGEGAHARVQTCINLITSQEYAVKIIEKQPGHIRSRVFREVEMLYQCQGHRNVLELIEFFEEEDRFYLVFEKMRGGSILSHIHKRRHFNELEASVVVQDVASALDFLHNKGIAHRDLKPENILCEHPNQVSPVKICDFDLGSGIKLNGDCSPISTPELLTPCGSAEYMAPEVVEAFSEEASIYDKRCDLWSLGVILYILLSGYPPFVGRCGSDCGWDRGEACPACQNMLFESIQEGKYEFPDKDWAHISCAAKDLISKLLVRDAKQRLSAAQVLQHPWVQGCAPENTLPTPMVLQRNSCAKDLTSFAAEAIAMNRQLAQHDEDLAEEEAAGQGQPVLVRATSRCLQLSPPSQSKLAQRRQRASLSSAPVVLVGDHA

Compound | inhibition at 0.1 µM (PKCζ(h)) | inhibition at 0.1 µM (CHK2(h)) | inhibition at 0.1 µM (Rsk1(h)) | inhibition at 0.1 µM (Arg(h)) | inhibition at 0.1 µM (CaMKI(h)) | inhibition at 0.1 µM (Blk(m)) | inhibition at 0.1 µM (Lyn(h)) | inhibition at 0.1 µM (Ron(h)) | inhibition at 0.1 µM (PKCγ(h)) | inhibition at 0.1 µM (PKCε(h)) | inhibition at 0.1 µM (Mer(h)) | inhibition at 0.1 µM (Mnk2(h)) | inhibition at 0.1 µM (Hck(h)) | inhibition at 0.1 µM (EphB1(h)) | inhibition at 0.1 µM (EphA5(h)) | inhibition at 0.1 µM [1] | inhibition at 0.1 µM (EphB2(h)) | inhibition at 0.1 µM (EphA8(h)) | inhibition at 0.1 µM (TSSK2(h)) | inhibition at 0.1 µM (SAPK2a(h)) | further results
Cc1cc2c(F)c(Oc3nc(Nc4cc(C5CC5)[nH]n4)cc(N4CCN(C)CC4)n3)ccc2[nH]1 [Compound 10] | -7% | 11% | -10% | 104% | 2% | 84% | 100% | 34% | -8% | -10% | 97% | 1% | 68% | 101% | 76% | 1% | 47% | 33% | 5% | 10% | inhibition at 0.1 µM (JAK2(h)): 92%; inhibition at 0.1 µM [2]: -1%; inhibition at 0.1 µM (TBK1(h)): 71%; inhibition at 0.1 µM (DAPK2(h)): -16%; inhibition at 0.1 µM (RIPK2(h)): 1%; inhibition at 0.1 µM (EphA7(h)): 23%; inhibition at 0.1 µM (PDGFRα(h)): -3%; inhibition at 0.1 µM (cKit(D816H)(h)): 86%; inhibition at 0.1 µM (LIMK1(h)): 83%; inhibition at 0.1 µM (Flt3(D835Y)(h)): 99%; inhibition at 0.1 µM (mTOR/FKBP12(h)): -14%
Cc1cc2c(F)c(Oc3nc(Nc4cc(C5CC5)[nH]n4)cc(N4CCNCC4)n3)ccc2[nH]1 [Compound 11, N-(5-cyclopropyl-1H-pyrazol-3-yl)-2-((4-fluoro-2-methyl-1H-indol-5-yl)oxy)-6-(piperazin-1-yl)pyrimidin-4-amine] | -14% | 4% | 9% | 102% | 7% | 93% | 99% | 43% | -5% | 17% | 96% | -2% | 85% | 100% | 81% | 1% | 76% | 39% | 2% | -7% | inhibition at 0.1 µM (JAK2(h)): 99%; inhibition at 0.1 µM [2]: 0%; inhibition at 0.1 µM (TBK1(h)): 95%; inhibition at 0.1 µM (DAPK2(h)): -6%; inhibition at 0.1 µM (RIPK2(h)): 13%; inhibition at 0.1 µM (EphA7(h)): 34%; inhibition at 0.1 µM (PDGFRα(h)): 29%; inhibition at 0.1 µM (cKit(D816H)(h)): 91%; inhibition at 0.1 µM (LIMK1(h)): 90%; inhibition at 0.1 µM (Flt3(D835Y)(h)): 101%; inhibition at 0.1 µM (mTOR/FKBP12(h)): -9%
